For one assay, the target named is T1, human TRPV3 (Homo sapiens, UniProt Q8NET8).
T1 construct: expressed in transfected cells; host or cells: overexpressing cells
T1 sequence (Q8NET8 1-790): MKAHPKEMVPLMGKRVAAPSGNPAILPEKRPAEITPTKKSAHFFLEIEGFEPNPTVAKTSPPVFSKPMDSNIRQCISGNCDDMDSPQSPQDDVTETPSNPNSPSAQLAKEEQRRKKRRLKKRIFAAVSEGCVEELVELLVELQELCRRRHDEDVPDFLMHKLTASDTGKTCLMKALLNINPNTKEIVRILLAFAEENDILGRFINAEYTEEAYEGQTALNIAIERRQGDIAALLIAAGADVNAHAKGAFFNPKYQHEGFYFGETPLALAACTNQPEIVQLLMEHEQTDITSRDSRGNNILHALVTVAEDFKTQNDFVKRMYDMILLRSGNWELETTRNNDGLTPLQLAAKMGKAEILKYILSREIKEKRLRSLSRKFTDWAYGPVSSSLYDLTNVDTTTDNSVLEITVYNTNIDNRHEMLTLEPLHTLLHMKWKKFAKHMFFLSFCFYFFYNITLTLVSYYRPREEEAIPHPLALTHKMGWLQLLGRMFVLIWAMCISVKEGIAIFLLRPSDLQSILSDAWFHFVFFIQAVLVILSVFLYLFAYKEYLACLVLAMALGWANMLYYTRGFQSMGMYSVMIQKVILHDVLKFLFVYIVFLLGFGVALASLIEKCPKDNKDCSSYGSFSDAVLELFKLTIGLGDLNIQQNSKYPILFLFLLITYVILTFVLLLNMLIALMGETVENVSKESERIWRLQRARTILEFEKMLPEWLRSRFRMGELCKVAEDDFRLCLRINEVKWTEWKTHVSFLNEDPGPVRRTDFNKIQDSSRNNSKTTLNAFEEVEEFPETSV
As to the kind of experiment: In vitro Ca2+ flux counter-screen in human TRPV3 overexpressing cells. The note with it: counter-screen; read-out: TRPV3 EC50. Type of assay: cell-based.

The next assay deals with T2, human TRPA1 (Homo sapiens, UniProt O75762).
T2 construct: expressed in transfected cells; host or cells: overexpressing cells
In words: In vitro Ca2+ flux counter-screen in human TRPA1 overexpressing cells. The format is cell-based. As to conditions: counter-screen; read-out: TRPA1 EC50.

In the next assay the test system is MDA-MB-231. In words: Human cancer cell growth inhibition assay (ATP assay), MDA-MB-231. The format is cell-based. As to conditions: Homo sapiens, MDA-MB-231, 96 h; 4 days; Means±SEM from three independent experiments; read-out: MDA-MB-231, IC50.
Another assay concerns NCI-H460. In words: Human cancer cell growth inhibition assay (ATP assay), NCI-H460. Type of assay: cell-based. The note with it: Homo sapiens, NCI-H460, 96 h; 4 days; Means±SEM from three independent experiments; read-out: NCl-H460, IC50.
The next assay relates to OVCAR-8. In words: Human cancer cell growth inhibition assay (ATP assay), OVCAR-8. The format is cell-based. As to conditions: Homo sapiens, OVCAR-8, 96 h; 4 days; Means±SEM from three independent experiments; read-out: OVCAR-8, IC50.
The subject of the next assay is MDA-MB-231 cell invasion. As to the kind of experiment: Cancer cell invasion assay, MDA-MB-231. Type of assay: cell-based, human. As to conditions: 24 h. As to the method:
A cancer cell invasion assay was developed based on literature protocols (Methods 2005, 37, 208; EMBO J 2002, 21, 6289; Cellular Signalling 2012, 24, 1276.). Membrane matrix gel (Cat #A1413201, ThermoFisher) was diluted in ice-cold, serum-free RPMI 1640 Medium (Cat #31800022, ThermoFisher) at a concentration of 0.5-0.6 mg/mL. Then it was added to the upper compartment (100 μL per cup) of millicell inserts (Cat #PI8P01250, ThermoFisher) placed in a 24-well plate (Part no. 229123, Celltreat). The plate was incubated at 37° C. for 2 h to allow the liquid gel to solidify. RPMI 1640 Medium supplemented with 10% FBS (300 μL) was added to the well of the plate (lower compartment) as attractant, then DMSO or compounds were added. Human cancer cells (1×10^5 cells in 200 μL of RPMI 1640 Medium) were added to the upper compartment of the insert, then DMSO or compounds were added. After the plate was incubated at 37° C. for 24 h, the cells were fixed on the lower side of the insert membrane with 4% formaldehyde and stained with 1% crystal violet (Part no. IS12146, Innovating Science). The invaded cells on the lower side of the filter were counted under an inverted microscope equipped with either a 4× or a 10× objective (FIG. 11). The cell numbers from 5 random views were averaged and plotted as percentage against the DMSO control (FIG. 12A).

The target of the next assay is T3, human TRPV1 (Homo sapiens, UniProt Q8NER1).
T3 construct: DYK (FLAG) tag from vector pcDNA3.1+/C-(K)DYK (C); host or cells: FreeStyle 293-F cells (HEK 293), transient transfection
In words: In vitro Ca2+ flux assay in human TRPV1 transfected HEK 293 cells. The format is cell-based. The note with it: Means±SEM from three independent experiments; read-out: TRPV1 EC50.

T2 sequence (O75762 whole entry): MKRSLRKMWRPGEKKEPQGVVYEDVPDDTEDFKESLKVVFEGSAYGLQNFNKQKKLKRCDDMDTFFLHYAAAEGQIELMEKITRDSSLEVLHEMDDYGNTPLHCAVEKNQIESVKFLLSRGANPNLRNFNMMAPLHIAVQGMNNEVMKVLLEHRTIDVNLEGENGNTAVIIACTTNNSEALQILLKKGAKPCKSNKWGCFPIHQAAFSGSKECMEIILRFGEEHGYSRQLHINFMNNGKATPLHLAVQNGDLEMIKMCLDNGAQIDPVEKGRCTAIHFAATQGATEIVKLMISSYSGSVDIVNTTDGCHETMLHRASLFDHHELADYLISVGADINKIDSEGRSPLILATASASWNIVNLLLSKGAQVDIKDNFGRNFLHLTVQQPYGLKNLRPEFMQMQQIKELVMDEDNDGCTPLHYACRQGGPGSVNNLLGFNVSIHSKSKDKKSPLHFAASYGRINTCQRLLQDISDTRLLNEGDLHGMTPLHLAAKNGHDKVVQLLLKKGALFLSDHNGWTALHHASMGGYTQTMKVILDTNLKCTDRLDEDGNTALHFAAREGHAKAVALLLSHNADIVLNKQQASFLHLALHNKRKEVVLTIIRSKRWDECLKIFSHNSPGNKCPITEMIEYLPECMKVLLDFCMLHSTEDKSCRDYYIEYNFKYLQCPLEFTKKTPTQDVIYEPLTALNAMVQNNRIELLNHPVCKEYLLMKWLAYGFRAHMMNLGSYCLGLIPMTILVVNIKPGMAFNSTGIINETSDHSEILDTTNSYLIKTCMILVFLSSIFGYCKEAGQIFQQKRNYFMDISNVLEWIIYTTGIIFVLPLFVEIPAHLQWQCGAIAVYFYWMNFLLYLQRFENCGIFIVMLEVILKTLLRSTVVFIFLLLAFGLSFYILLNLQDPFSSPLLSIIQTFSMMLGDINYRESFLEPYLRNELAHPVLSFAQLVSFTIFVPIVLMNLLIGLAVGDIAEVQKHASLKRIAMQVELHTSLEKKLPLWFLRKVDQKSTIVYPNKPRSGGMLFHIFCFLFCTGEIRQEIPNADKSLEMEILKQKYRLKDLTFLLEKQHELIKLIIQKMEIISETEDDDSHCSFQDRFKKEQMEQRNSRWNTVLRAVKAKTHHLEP
T3 sequence (Q8NER1 whole entry): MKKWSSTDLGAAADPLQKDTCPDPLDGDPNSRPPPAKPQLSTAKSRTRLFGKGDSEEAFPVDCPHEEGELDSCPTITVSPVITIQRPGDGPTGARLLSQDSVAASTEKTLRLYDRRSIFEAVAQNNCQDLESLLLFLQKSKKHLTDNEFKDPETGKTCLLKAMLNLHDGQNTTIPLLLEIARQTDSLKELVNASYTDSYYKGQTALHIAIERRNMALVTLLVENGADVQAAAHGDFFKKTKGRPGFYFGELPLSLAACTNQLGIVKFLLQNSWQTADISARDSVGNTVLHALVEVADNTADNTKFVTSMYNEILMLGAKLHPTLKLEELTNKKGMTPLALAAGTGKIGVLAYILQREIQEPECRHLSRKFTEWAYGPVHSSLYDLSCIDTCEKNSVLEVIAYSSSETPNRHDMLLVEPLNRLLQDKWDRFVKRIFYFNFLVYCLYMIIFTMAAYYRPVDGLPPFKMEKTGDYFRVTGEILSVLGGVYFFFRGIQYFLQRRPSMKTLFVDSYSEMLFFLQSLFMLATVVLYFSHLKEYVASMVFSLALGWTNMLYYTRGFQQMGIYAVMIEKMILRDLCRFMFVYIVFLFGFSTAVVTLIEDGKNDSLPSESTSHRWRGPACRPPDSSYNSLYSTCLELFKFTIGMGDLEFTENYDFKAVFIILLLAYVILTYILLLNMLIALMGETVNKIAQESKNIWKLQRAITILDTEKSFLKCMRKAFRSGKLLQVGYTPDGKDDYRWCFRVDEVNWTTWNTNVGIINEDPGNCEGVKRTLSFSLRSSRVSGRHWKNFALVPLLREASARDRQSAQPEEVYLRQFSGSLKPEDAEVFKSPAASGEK

Consider `COc1cc(CC2=NCC(c3ccccc3)O2)ccc1O` (stereo not drawn) [YB-3], for which the EC50 on human TRPV3 and on human TRPA1 was > 10 µM throughout. In addition, the IC50 was 430 ± 90 µM in the assay on MDA-MB-231, 320 ± 86 µM in the assay with NCI-H460 and 500 ± 120 µM in the assay on OVCAR-8. The “inhibition of MDA-MB-231 cell invasion” value with MDA-MB-231 cell invasion is “dose-dependently inhibited”.

For the compound `COc1cc(CC2=NCC(c3ccc(C(F)(F)F)cc3)O2)ccc1O` (stereo not drawn) [YB-4], the EC50 at human TRPV3 and on human TRPA1 was > 10 µM in each case. The IC50 in the assay with MDA-MB-231 is 469 ± 130 µM; with NCI-H460 it was 270 ± 45 µM; with OVCAR-8 it was 300 ± 60 µM. In addition, in the assay with MDA-MB-231 cell invasion, the “inhibition of MDA-MB-231 cell invasion” value is given as “dose-dependently inhibited”.

On to `COc1cc(CC2=NCC(c3ccc(-c4ccccc4)cc3)O2)ccc1O` (stereo not drawn) [YB-5], for which the EC50 at human TRPV3 and on human TRPA1 was > 10 µM in each case. In addition, the values for the IC50 in the assay on MDA-MB-231, in the assay on NCI-H460 and in the assay on OVCAR-8 were 542 ± 101 µM, 210 ± 48 µM and 150 ± 42 µM, respectively. For the same compound, the “inhibition of MDA-MB-231 cell invasion” value with MDA-MB-231 cell invasion is on record as “dose-dependently inhibited”.

Turning to `COc1cc(CNC(=O)CCCC/C=C/C(C)C)ccc1NS(C)(=O)=O` [YB-6], the EC50 on human TRPV3 and on human TRPA1 was > 10 µM in each case. The IC50 in the assay with MDA-MB-231 worked out at 867 ± 72 µM; in the assay on NCI-H460 it was 400 ± 46 µM; in the assay with OVCAR-8, 400 ± 51 µM. Further, the “inhibition of MDA-MB-231 cell invasion” value in the assay with MDA-MB-231 cell invasion is listed as “dose-dependently inhibited”.

With `COc1cc(CNC(=O)CCCC/C=C/C(C)C)ccc1N(S(C)(=O)=O)S(C)(=O)=O` [YB-7], the EC50 on human TRPV3 and on human TRPA1 was > 10 µM each time. Also, the IC50 in the assay with MDA-MB-231 came out at 386 ± 107 µM; in the assay with NCI-H460, 200 ± 49 µM; in the assay on OVCAR-8, 310 ± 45 µM. The “inhibition of MDA-MB-231 cell invasion” value with MDA-MB-231 cell invasion is recorded as “dose-dependently inhibited”.

As for `CNc1ccc(CNC(=O)CCCC/C=C/C(C)C)cc1OC` [YB-8], the EC50 on human TRPV3 and on human TRPA1 was > 10 µM throughout. In addition, the results for the IC50 in the assay on MDA-MB-231, with NCI-H460 and in the assay with OVCAR-8 were 311 ± 31 µM, 250 ± 23 µM and 500 ± 81 µM, respectively. The “inhibition of MDA-MB-231 cell invasion” value with MDA-MB-231 cell invasion is listed as “dose-dependently inhibited”.

Regarding `COc1cc(CC(=O)N/C=C/c2ccc(-c3ccccc3)cc2)ccc1O` [YB-12], the 50% effective concentration (EC50) at human TRPV3 and at human TRPA1 was > 10 µM throughout. In addition, the IC50 was found to be 136 ± 29 µM in the assay with MDA-MB-231, 61 ± 21 µM in the assay with NCI-H460 and 129 ± 20 µM with OVCAR-8. Further, the “inhibition of MDA-MB-231 cell invasion” value in the assay with MDA-MB-231 cell invasion was “dose-dependently inhibited”.

In the case of `COCCOCCOCCC(=O)Nc1ccc(CNC(=O)CCCC/C=C/C(C)C)cc1OC` [YB-13], the EC50 on human TRPV3 and at human TRPA1 was > 10 µM in each case. In addition, the IC50 came out at 107 ± 7.5 µM with MDA-MB-231, 100 ± 11 µM with NCI-H460 and 200 ± 16 µM with OVCAR-8. Besides, the “inhibition of MDA-MB-231 cell invasion” value in the assay on MDA-MB-231 cell invasion is on record as “dose-dependently inhibited”.

For the compound `COc1ccc(/C=C/NC(=O)Cc2ccc(O)c(OC)c2)cc1` [YB-14], the EC50 on human TRPV3 and at human TRPA1 was > 10 µM each time. The half-inhibitory concentration (IC50) was 300 ± 46 µM with MDA-MB-231, > 300 µM with NCI-H460 and 500 ± 57 µM in the assay on OVCAR-8.

On to `COc1cc(CC(=O)N/C=C/c2ccc(-c3ccccc3)cc2)ccc1N` [YB-19], for which the EC50 at human TRPV3 and at human TRPA1 was > 10 µM in each case. Besides, the figures for the IC50 with MDA-MB-231, in the assay on NCI-H460 and in the assay with OVCAR-8 were 103 ± 18 µM, 117 ± 16 µM and 100 ± 15 µM, respectively.

On to `COc1ccc(/C=C/NC(=O)Cc2ccc(N)c(OC)c2)cc1` [YB-20], for which the EC50 at human TRPV3 and on human TRPA1 was > 10 µM each time. In addition, the IC50 turned out to be 86 ± 14 µM in the assay on MDA-MB-231, 279 ± 42 µM with NCI-H460 and 283 ± 38 µM in the assay with OVCAR-8.

Consider `COc1cc(CC(=O)N/C=C/c2ccc(C(F)(F)F)cc2)ccc1NC(=O)CCCC/C=C/C(C)C` [YB-29], for which the EC50 at human TRPV1, at human TRPV3 and at human TRPA1 was > 10 µM each time.

On to `COc1cc(CC(=O)N/C=C/c2ccc(C(F)(F)F)cc2)ccc1NC(C)=O` [YB-30], for which the EC50 at human TRPV1 is 8.8 ± 0.9 µM; on human TRPV3 it was > 10 µM; at human TRPA1, > 10 µM.
